Experimental data reported in patent US20260256940A1, “MITOCHONDRIA AS A TARGETED DELIVERY PLATFORM” (cellvie AG, priority 2022, published 2026).

System: heart of a pig
Conditions: in vivo
Experimental: Five milliliters of mitochondria-ssDNA suspension (ssDNA is fluorescently labeled with FAM, and the ssDNA oligo sequence 5′ to 3′ is [sequence]) in conjugation buffer (at a concentration of 1 mg/mL) were directly injected into the heart of the pig. After two hours, the pig was sacrificed, and a small piece of heart tissue where the injection had occurred was cut. The tissue was fixed using formaldehyde, and a histology cut was performed. The tissue was stained with DAPI and rhodamine phalloidin (Thermo Fisher Scientific) to visualize cell nuclei and F-actin networks, respectively. The FAM signal represents the ssDNA signal. A control experiment was prepared by directly injecting naked ssDNA.
An in vivo experiment was conducted to understand the stability of the mitochondria-ssDNA complex inside a tissue or organ after injection. Using a syringe, either the mitochondria-ssDNA complex or naked ssDNA (control) were directly injected into the heart of a pig. Two hours post-injection, the tissue was processed and fluorescently stained using DAPI and rhodamine phalloidin to stain cell nuclei and F-actins, respectively. The samples were analyzed using a fluorescence microscope to visualize nuclei, actin and the FAM-labeled ssDNA.

Substance: naked ssDNA: FAM-labeled ssDNA, oligo sequence 5′ to 3′ GCAACAGTGAAGGAAAGCC, injected without mitochondria as control (FAM label, chemistry not fully specified; listed 3' to 5')
- ssDNA signal in heart tissue: No ssDNA signal was observed
